Test results published in patent US20260070899A1, “N-(2-(4-CYANOTHIAZOLIDIN-3-YL)-2-OXOETHYL)-QUINOLINE-4-CARBOXAMIDES” (AstraZeneca AB, priority 2022, published 2026).

Assays:
Assay in all cases: biochemical
[1] = target: T1, hFAP (M39-A757) (Homo sapiens, UniProt Q12884);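 also: surface plasmon resonance direct binding to hFAP amine-coupled on a sensor chip, rising compound concentrations by single cycle kinetics, Kd from global fit of interaction models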
T1 sequence (Q12884 39-757): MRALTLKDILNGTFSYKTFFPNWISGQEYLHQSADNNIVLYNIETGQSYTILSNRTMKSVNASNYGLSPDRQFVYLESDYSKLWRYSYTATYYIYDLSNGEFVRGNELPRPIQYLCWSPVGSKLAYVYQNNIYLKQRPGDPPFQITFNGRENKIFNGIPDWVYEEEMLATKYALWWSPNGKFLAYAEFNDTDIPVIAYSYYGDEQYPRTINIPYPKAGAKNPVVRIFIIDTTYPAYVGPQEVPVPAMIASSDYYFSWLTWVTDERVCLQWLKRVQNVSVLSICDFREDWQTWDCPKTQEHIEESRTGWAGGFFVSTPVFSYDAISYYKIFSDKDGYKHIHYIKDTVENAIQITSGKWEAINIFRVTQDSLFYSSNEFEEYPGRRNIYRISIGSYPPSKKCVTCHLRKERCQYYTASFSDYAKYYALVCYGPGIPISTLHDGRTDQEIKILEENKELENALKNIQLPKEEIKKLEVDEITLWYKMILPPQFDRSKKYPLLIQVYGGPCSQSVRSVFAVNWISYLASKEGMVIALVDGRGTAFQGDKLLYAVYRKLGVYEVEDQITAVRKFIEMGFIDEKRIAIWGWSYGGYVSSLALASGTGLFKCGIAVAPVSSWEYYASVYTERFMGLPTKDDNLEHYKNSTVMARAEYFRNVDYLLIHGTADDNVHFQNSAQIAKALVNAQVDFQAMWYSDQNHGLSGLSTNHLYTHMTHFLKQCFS

[2] = target: T2, hFAP (Homo sapiens, UniProt Q12884);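 also: substrate fluorescence read at room temperature in darkness, IC50 obtained by one-site dose-response fitting of percent inhibition against log concentration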
T2 sequence (Q12884 38-760): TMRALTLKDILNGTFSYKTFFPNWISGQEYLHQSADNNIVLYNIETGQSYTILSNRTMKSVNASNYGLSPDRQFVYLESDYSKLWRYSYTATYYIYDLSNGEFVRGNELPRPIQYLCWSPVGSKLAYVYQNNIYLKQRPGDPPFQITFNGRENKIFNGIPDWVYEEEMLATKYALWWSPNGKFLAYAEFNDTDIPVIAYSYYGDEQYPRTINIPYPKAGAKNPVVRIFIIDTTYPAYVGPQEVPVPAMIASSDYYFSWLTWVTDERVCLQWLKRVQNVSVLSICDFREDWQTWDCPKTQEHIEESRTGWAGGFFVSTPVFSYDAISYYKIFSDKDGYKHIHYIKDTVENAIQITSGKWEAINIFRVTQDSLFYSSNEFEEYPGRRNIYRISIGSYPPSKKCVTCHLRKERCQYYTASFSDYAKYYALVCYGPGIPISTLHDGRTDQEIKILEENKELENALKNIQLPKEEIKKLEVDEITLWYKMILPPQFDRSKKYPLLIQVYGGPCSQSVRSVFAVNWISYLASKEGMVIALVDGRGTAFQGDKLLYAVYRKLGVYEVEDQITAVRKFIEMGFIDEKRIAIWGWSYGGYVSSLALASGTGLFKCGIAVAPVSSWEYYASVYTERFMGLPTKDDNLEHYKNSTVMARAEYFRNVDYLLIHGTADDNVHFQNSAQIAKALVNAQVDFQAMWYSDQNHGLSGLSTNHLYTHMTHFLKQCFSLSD
Procedure: 384 low volume black plates (Greiner #784076) were used. 4 μL, 0.48 nM enzyme solution (100 mM Tris HCl, 100 mM NaCl, 0.05% Chaps, pH 7.4) was added to 40 nL compounds (in DMSO) at 10 CR, 3 fold dilution series from 50 μM FAC. Plates were incubated for 15 min at rt in dark. 4 μL, 40 μM substrate solution (100 mM Tris HCl, 100 mM NaCl, 0.05% Chaps, pH 7.4) was added to each well. Plates were centrifuged at 1000 rpm and incubated for 30 min at rt in dark. The plates were read on a PHERAstar® reader with excitation 340 nm and emission 460 nm. Data were analyzed in Genedata Screener®. IC50 values were determined by plotting % inhibition versus log compound concentration and using a one site dose response model.

[3] = target: T3, Prolyl endopeptidase, Prolyl Oligopeptidase (hPREP) (Homo sapiens, UniProt P48147)
T3 sequence (P48147 1-710): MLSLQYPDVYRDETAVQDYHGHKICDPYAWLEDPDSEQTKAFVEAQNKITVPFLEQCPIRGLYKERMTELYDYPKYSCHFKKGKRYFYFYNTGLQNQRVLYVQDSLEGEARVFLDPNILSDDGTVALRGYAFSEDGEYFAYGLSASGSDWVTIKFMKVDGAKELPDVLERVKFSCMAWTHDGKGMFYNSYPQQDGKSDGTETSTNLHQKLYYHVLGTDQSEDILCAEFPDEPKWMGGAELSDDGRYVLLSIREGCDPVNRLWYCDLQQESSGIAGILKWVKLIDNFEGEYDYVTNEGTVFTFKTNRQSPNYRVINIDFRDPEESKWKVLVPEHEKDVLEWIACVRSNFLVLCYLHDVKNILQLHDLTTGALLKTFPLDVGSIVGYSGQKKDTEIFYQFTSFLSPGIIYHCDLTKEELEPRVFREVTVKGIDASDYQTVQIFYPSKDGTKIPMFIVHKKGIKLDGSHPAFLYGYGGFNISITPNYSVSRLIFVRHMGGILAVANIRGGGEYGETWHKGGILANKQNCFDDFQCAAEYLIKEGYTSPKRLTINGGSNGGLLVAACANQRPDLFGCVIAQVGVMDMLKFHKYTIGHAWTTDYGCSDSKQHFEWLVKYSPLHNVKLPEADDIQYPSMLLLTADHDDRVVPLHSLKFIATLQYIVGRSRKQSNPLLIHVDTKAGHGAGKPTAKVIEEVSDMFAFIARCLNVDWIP

Kd [1]	IC50 [2]	IC50 [3]	SMILES
0.8 nM	0.66 nM	440 nM	CC(O)c1ccc2nccc(C(=O)NCC(=O)N3CSC[C@H]3C#N)c2c1 (mixture of isomers) [Example 25, N-(2-((R)-4-Cyanothiazolidin-3-yl)-2-oxoethyl)-6-((RS)-1-hydroxyethyl)quinoline-4-carboxamide]
4.7 nM	0.84 nM	470 nM	COC(C)c1ccc2nccc(C(=O)NCC(=O)N3CSC[C@H]3C#N)c2c1 (mixture of isomers) [Example 26, N-(2-((R)-4-Cyanothiazolidin-3-yl)-2-oxoethyl)-6-((RS)-1-methoxyethyl)quinoline-4-carboxamide]
0.63 nM	1.7 nM	1700 nM	COCC(OC)c1ccc2nccc(C(=O)NCC(=O)N3CSC[C@H]3C#N)c2c1 (mixture of isomers) [Example 30, N-(2-((R)-4-Cyanothiazolidin-3-yl)-2-oxoethyl)-6-((RS)-1,2-dimethoxyethyl)quinoline-4-carboxamide]
0.3 nM	0.54 nM	680 nM	N#C[C@@H]1CSCN1C(=O)CNC(=O)c1ccnc2ccc(C3COCCO3)cc12 (mixture of isomers) [Example 33, N-(2-((R)-4-Cyanothiazolidin-3-yl)-2-oxoethyl)-6-((RS)-1,4-dioxan-2-yl)quinoline-4-carboxamide]
0.31 nM	0.61 nM	460 nM	N#C[C@@H]1CSCN1C(=O)CNC(=O)c1ccnc2ccc(C3CCCO3)cc12 (mixture of isomers) [Example 34, N-(2-((R)-4-Cyanothiazolidin-3-yl)-2-oxoethyl)-6-((RS)-tetrahydrofuran-2-yl)quinoline-4-carboxamide]
0.075 nM	0.3 nM	330 nM	CC1(C)CC(c2ccc3nccc(C(=O)NCC(=O)N4CSC[C@H]4C#N)c3c2)CCO1 (mixture of isomers) [Example 68, N-(2-((R)-4-Cyanothiazolidin-3-yl)-2-oxoethyl)-6-((RS)-2,2-dimethyltetrahydro-2H-pyran-4-yl)quinoline-4-carboxamide]
0.026 nM	0.2 nM	350 nM	N#C[C@@H]1CSCN1C(=O)CNC(=O)c1ccnc2ccc([C@]34CCOC[C@H]3C4)cc12 (racemic) [Example 69, 6-((1RS,6SR)-3-Oxabicyclo[4.1.0]heptan-6-yl)-N-(2-((R)-4-cyanothiazolidin-3-yl)-2-oxoethyl)quinoline-4-carboxamide]
0.33 nM	0.44 nM	35 nM	N#C[C@@H]1CSCN1C(=O)CNC(=O)c1ccnc2ccc(Oc3ccccc3)cc12 [Example 1, (R)—N-(2-(4-Cyanothiazolidin-3-yl)-2-oxoethyl)-6-phenoxyquinoline-4-carboxamide]
0.91 nM	0.79 nM	35 nM	N#C[C@@H]1CSCN1C(=O)CNC(=O)c1ccnc2ccc(C(F)(F)F)cc12 [Example 17, (R)—N-(2-(4-Cyanothiazolidin-3-yl)-2-oxoethyl)-6-(trifluoromethyl)-quinoline-4-carboxamide]
0.1 nM	0.22 nM	590 nM	Cc1nn(C)nc1Cc1ccc2nccc(C(=O)NCC(=O)N3CSC[C@H]3C#N)c2c1 [Example 19, (R)—N-(2-(4-Cyanothiazolidin-3-yl)-2-oxoethyl)-6-((2,5-dimethyl-2H-1,2,3-triazol-4-yl)methyl)quinoline-4-carboxamide]
0.013 nM	0.24 nM	560 nM	N#C[C@@H]1CSCN1C(=O)CNC(=O)c1ccnc2ccc(C3=CCOCC3)cc12 [Example 22, (R)—N-(2-(4-Cyanothiazolidin-3-yl)-2-oxoethyl)-6-(3,6-dihydro-2H-pyran-4-yl)quinoline-4-carboxamide]
1.6 nM	0.65 nM	34 nM	Cc1ccc2nccc(C(=O)NCC(=O)N3CSC[C@H]3C#N)c2c1 [Example 28, (R)—N-(2-(4-cyanothiazolidin-3-yl)-2-oxoethyl)-6-methylquinoline-4-carboxamide]
0.34 nM	0.21 nM	180 nM	Cc1conc1Cc1ccc2nccc(C(=O)NCC(=O)N3CSC[C@H]3C#N)c2c1 [Example 38, (R)—N-(2-(4-Cyanothiazolidin-3-yl)-2-oxoethyl)-6-((4-methylisoxazol-3-yl)methyl)quinoline-4-carboxamide]
0.18 nM	0.34 nM	530 nM	Cc1cc(C)c(Cc2ccc3nccc(C(=O)NCC(=O)N4CSC[C@H]4C#N)c3c2)cn1 [Example 39, (R)—N-(2-(4-Cyanothiazolidin-3-yl)-2-oxoethyl)-6-((4,6-dimethylpyridin-3-yl)methyl)quinoline-4-carboxamide]
0.36 nM	0.088 nM	370 nM	Cn1ncc(Cc2ccc3nccc(C(=O)NCC(=O)N4CSC[C@H]4C#N)c3c2)n1 [Example 41, (R)—N-(2-(4-Cyanothiazolidin-3-yl)-2-oxoethyl)-6-((2-methyl-2H-1,2,3-triazol-4-yl)methyl)quinoline-4-carboxamide]
0.22 nM		240 nM	N#C[C@@H]1CSCN1C(=O)CNC(=O)c1ccnc2ccc(C3(c4ccc(Cl)cn4)CC3)cc12 [Example 47, (R)-6-(1-(5-Chloropyridin-2-yl)cyclopropyl)-N-(2-(4-cyanothiazolidin-3-yl)-2-oxoethyl)quinoline-4-carboxamide]
0.042 nM		300 nM	N#C[C@@H]1CSCN1C(=O)CNC(=O)c1ccnc2ccc(C3(F)CCOCC3)cc12 [Example 64, (R)—N-(2-(4-Cyanothiazolidin-3-yl)-2-oxoethyl)-6-(4-fluorotetrahydro-2H-pyran-4-yl)quinoline-4-carboxamide]
0.15 nM	0.15 nM	460 nM	COC1(c2ccc3nccc(C(=O)NCC(=O)N4CSC[C@H]4C#N)c3c2)CCOCC1 [Example 66, (R)—N-(2-(4-Cyanothiazolidin-3-yl)-2-oxoethyl)-6-(4-methoxy-tetrahydro-2H-pyran-4-yl)quinoline-4-carboxamide]
0.3 nM		290 nM	N#C[C@@H]1CSCN1C(=O)CNC(=O)c1ccnc2ccc(Cn3cccn3)cc12 [Example 80, (R)-6-((1H-Pyrazol-1-yl)methyl)-N-(2-(4-cyanothiazolidin-3-yl)-2-oxoethyl)quinoline-4-carboxamide]
